The source of these data is patent US11192891B2, “Diazaspiro ROCK inhibitors” (BRISTOL-MYERS SQUIBB COMPANY, priority 2017, dated 2021).

The subject of one assay is rat stroke model. The following applies: cited from earlier work.
The test system of assay [1] is IL-1 beta-induced coronary stenosis. The note with it: long term treatment, porcine model; cited from earlier work.
The target in the next assay is ROCK2 (Homo sapiens, UniProt O75116). Description: ROCK kinase inhibition assay, FITC peptide substrate, LABCHIP 3000 readout. It is filed as biochemical. The following applies: 5 μM ATP, 1.5 μM peptide substrate. An outline of the steps: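 Tested across a concentration range, with percent inhibition of kinase activity derived per concentration. Peptide phosphorylation, initiated by adding the Rho kinase variant (final DMSO <2%), was quenched with EDTA and substrate/product resolved by mobility shift.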
Chain of ROCK2 (O75116 whole entry, species assumed): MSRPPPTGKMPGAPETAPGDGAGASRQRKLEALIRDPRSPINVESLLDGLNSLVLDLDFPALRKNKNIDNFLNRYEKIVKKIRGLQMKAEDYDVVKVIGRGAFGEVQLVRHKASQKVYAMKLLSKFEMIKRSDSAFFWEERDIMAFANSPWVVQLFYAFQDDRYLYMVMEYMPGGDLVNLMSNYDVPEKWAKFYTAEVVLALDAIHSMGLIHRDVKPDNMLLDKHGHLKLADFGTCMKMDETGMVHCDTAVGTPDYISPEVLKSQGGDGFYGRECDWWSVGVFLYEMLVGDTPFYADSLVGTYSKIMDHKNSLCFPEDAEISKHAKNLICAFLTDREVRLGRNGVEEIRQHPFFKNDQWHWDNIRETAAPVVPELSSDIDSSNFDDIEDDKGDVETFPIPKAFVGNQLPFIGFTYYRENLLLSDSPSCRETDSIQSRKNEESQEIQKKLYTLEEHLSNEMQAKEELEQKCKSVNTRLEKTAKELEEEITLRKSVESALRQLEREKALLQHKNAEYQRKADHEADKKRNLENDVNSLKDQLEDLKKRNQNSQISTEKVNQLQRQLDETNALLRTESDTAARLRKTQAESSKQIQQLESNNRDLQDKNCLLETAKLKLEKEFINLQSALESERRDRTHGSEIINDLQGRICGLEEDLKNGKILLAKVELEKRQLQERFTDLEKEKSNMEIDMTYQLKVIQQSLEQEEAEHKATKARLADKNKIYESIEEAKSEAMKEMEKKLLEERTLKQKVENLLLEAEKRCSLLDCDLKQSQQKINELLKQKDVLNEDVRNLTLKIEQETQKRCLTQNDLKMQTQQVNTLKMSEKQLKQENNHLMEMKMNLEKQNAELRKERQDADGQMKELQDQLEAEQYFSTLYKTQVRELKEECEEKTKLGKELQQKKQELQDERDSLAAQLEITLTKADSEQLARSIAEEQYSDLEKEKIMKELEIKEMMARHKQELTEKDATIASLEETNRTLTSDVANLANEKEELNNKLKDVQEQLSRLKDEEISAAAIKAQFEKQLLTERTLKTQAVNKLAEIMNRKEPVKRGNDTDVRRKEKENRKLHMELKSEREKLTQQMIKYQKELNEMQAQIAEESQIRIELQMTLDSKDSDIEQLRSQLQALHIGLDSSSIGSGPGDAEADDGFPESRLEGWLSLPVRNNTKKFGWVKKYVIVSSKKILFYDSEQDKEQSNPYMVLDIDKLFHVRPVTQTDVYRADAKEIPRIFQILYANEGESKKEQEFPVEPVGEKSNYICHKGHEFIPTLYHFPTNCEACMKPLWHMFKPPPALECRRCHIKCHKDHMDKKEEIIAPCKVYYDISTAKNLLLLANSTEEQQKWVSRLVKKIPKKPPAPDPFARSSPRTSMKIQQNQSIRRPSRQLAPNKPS

Assay [2] relates to rat models of hypertension. The note with it: cited from earlier work.
Another assay concerns Dahl salt-sensitive rats. The note with it: cited from earlier work.
The subject of a further assay is neointimal formation. The following applies: rats; cited from earlier work.

For `O=S(=O)(c1cccc2cnccc12)N1CCCNCC1` [fasudil], the “infarct size and neurologic deficit” value in the assay on rat stroke model is “reduce both the infarct size and neurologic deficit”. For the same compound, in assay [1], the coronary constrictive remodeling entry is listed as “promote a regression of coronary constrictive remodeling” and the coronary stenosis entry is on record as “progressively reduce coronary stenosis”.

By IC50 is commonly meant the midpoint of a concentration-inhibition curve. Consider `COc1cc(N2CCC3(CCN(C(=O)c4ccc(N5CCN(Cc6nccs6)CC5)cc4)CC3)C2=O)ccc1-c1cn[nH]c1` [Example 236, 2-[3-methoxy-4-(1H-pyrazol-4-yl)phenyl]-8-(4-{4-[(1,3-thiazol-2-yl)methyl]piperazin-1-yl}benzoyl)-2,8-diazaspiro[4.5]decan-1-one], for which the concentration for half-maximal inhibition (IC50) against ROCK2 is 2.7 nM.

The compound `COc1ccc(C(=O)N2CCC3(CC2)CCN(c2ccc(-c4cn[nH]c4)c(OC)c2)C3=O)cc1` [Example 13, 2-[3-methoxy-4-(1H-pyrazol-4-yl)phenyl]-8-(4-methoxybenzoyl)-2,8-diazaspiro[4.5]decan-1-one] gave a half-inhibitory concentration (IC50) against ROCK2 of 8 nM. Compared with the last compound, the IC50 is about 3-fold higher.

Regarding `C[C@@H](N)[C@H]1CC[C@H](C(=O)Nc2ccncc2)CC1` [Example Y-27632], the “effect on blood pressure in control rats” value in assay [2] (control rats) is listed as “only a minor effect on blood pressure”. The “effect on blood pressure in hypertensive rats” value in assay [2] (spontaneously hypertensive, renal hypertensive and deoxycortisone acetate salt hypertensive rat models) is given as “significantly decrease blood pressure”. Further, the “ventricular hypertrophy, fibrosis and function” value with Dahl salt-sensitive rats is “improve ventricular hypertrophy, fibrosis and function”. Besides, the neointimal formation result in the assay with neointimal formation was “inhibited neointimal formation”.
